Measured values taken from US8221991B2, “Orphan nuclear receptor” (priority 1998, dated 2012).
“Also recorded” adds a separate entry of the source.

Tests used:
mPXR1 = mPXR1 (Mus musculus, UniProt O54915); conditions: CV-1 cells, (IR6)3-tk-CAT reporter; 10 μM
CYP3A1 levels = conditions: cited from earlier work
GST-mPXR1 [1] = target: T1, GST-mPXR1 (Mus musculus, UniProt O54915); conditions: Kliewer et al, Cell 92:73-82 (1998); cited from earlier work
T1 construct: The LBDs of hPXR and mPXR1 were expressed in E. coli as fusion proteins with glutathione-S-transferase (GST); made in house; host or cells: E. coli
T1 sequence (O54915 143-430 limits assumed): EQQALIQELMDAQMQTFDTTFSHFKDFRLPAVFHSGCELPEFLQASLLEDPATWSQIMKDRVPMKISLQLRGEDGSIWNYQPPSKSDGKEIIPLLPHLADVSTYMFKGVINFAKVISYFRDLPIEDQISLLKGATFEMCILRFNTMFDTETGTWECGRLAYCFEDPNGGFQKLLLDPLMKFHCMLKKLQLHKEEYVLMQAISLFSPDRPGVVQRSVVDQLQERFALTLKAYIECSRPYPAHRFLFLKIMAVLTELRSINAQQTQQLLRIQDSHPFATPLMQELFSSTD
T1 sequence (Q15788 whole entry partner, the tested form may be a part): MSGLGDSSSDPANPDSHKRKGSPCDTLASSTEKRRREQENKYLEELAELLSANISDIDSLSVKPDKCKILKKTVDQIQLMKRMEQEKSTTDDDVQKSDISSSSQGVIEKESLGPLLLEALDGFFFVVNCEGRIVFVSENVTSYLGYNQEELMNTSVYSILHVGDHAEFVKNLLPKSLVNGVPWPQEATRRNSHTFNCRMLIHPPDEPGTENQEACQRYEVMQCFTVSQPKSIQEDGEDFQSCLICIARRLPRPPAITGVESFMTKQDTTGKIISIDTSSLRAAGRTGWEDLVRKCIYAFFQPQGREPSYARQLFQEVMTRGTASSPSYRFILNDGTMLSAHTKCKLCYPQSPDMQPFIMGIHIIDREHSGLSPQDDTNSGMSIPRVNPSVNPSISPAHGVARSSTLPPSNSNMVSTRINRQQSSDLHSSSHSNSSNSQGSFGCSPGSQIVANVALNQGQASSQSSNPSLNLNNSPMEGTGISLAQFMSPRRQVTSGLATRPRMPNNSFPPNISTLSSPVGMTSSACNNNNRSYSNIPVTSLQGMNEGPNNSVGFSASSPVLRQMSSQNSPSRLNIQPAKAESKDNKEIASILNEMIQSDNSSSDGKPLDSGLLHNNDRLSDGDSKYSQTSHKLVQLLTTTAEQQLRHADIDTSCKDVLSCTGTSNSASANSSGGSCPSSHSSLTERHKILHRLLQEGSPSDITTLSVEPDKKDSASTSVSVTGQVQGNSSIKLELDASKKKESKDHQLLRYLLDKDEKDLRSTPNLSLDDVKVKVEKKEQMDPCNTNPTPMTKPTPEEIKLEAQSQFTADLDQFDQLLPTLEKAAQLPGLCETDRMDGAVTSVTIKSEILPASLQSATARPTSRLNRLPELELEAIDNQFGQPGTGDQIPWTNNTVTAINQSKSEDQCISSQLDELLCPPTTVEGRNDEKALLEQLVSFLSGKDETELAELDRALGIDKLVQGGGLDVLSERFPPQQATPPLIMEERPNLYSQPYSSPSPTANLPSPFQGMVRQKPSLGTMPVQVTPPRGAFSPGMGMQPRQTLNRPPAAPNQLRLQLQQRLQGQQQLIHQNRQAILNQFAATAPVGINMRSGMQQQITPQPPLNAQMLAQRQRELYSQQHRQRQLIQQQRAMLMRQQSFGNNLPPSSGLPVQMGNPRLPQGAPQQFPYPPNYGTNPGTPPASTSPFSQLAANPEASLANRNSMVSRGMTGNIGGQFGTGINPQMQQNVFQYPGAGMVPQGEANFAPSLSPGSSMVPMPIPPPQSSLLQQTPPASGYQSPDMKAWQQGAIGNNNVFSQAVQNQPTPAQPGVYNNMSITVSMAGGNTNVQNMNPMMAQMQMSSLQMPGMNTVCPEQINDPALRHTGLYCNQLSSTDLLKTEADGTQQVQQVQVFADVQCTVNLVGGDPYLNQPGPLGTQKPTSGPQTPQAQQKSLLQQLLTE

hPXR [2] = target: T2, hPXR (Homo sapiens, UniProt O75469); assay: Cotransfection assay, pSG5-hPXR ATG with (IR6)3-tk-CAT reporter in CV-1 cells; conditions: for activation of hPXR (CAT activity): 1 μM lovastatin, 100 μM phenobarbital, 10 μM of the other compounds
T2 sequence (O75469 1-434): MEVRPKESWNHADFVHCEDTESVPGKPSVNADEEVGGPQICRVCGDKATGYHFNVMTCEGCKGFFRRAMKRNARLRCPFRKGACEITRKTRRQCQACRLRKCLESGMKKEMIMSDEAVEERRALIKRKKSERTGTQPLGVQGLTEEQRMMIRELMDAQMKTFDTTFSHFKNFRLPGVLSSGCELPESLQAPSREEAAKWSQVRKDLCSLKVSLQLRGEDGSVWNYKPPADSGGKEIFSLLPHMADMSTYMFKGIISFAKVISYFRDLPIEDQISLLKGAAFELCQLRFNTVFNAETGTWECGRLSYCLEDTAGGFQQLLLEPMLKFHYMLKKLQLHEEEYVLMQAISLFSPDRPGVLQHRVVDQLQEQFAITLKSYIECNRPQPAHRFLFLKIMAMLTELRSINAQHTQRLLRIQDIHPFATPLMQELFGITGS
Method: (§1) Cells were treated with 1 μM mevastatin or lovastatin, 100 μM phenobarbital, or 10 μM of the other compounds. Cell extracts were subsequently assayed for CAT activity. […] (FIG. 4C) CARLA was performed with bacterially-expressed GST-hPXR or GST-mPXR1 and [^35S]SRC1.14 synthesized in vitro. […] [^35S]SRC1.14 complexed with GST-hPXR (top panel) or GST-mPXR1 (bottom panel) was precipitated with glutathione-sepharose beads.
(§2) CV-1 cells were plated in 24-well plates in DME medium supplemented with 10% charcoal-stripped fetal calf serum at a density of 1.2×10^5 cells per well. […] Cells were transfected overnight by lipofection using Lipofectamine (Life Technologies, Inc.), according to the manufacturer's instructions. The medium was changed to DME medium supplemented with 10% delipidated calf serum (Sigma) and cells were incubated for an additional 24 hours.
To determine, whether hPXR could regulate transcription through the IR6 motif, a reporter plasmid was generated containing three copies of the CYP3A4 IR6 response element upstream of the tk promoter and CAT gene.
It was next determined whether hPXR might mediate the effects of some or all of these compounds on CYP3A4 expression. CV-1 cells were cotransfected with the pSG5-hPXR ATG expression plasmid and the (IR6)3-tk-CAT reporter plasmid, and the cells were treated with micromolar concentrations of a number of compounds that are known to induce CYP3A gene expression in humans and/or rodents.

CYP3A4 gene expression = conditions: cited from earlier work
Biotin-His6-PXR/RXRα = target: T3, Biotin-His6-PXR/RXRα (Homo sapiens, UniProt O75469); assay: biochemical
T3 sequence (O75469 with tags, fused parts or gaps): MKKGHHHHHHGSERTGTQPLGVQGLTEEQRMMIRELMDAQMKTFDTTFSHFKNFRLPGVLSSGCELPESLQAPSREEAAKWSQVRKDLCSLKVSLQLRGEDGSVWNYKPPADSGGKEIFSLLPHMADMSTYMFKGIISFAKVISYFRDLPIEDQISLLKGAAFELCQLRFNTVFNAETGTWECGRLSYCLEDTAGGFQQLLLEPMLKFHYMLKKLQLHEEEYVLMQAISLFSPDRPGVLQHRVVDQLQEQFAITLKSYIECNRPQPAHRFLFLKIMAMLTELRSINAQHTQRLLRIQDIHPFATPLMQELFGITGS
T3 sequence (P19793 with tags, fused parts or gaps partner limits assumed): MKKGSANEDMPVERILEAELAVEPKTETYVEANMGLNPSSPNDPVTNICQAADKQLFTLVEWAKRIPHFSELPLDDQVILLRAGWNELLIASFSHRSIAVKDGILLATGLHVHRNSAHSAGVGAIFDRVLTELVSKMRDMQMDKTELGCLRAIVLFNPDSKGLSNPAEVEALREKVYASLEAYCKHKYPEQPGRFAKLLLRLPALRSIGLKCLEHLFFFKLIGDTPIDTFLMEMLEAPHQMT
Method: Test compounds were dissolved in DMSO at 10 mM and diluted 1:10 in DMSO before serially diluting in assay buffer. […] Streptavidin-PVT SPA beads (AmershamPharmacia cat 4 RPNQ0007) were resuspended in assay buffer (50 mM Tris HCl pH 8.0, 50 mM KCl, 1 mM DTT, 0.1 mg/ml essentially fatty acid free bovine serum albumin) at 0.5 mg/ml. Biotin-His6-PXR/RXRα was added to the beads to a final concentration of 50 nM. The receptors were allowed to couple to the SPA beads for thirty minutes at room temperature. The uncoupled receptor was removed by centrifuging the SPA beads at 3000 rpm for 5 minutes in a swinging bucket rotor of a Rupp & Bowman Silencer centrifuge. The receptor coated SPA beads were then resuspended in assay buffer to 3.3 mg/ml. […] The total volume in each well was 100 μL. […] The plates were then allowed to incubate at room temperature until equilibrium was obtained, approximately 1.5 hours. The plates were then counted on a TopCount liquid scintillation counter (Packard) using a protocol optimized for ^3H PVT SPA and programmed to correct for color quenching.

GST-mPXR1 [3] = target: T1, GST-mPXR1; assay: Coactivator-receptor ligand assay (CARLA), GST-mPXR1 with [35S]SRC1.14; format: binding; conditions: 10 μM
Method: as §1
GST-hPXR fusion protein was expressed in BL21(DE3)plysS cells and bacterial extracts prepared by one cycle of freeze-thaw of the cells in Protein Lysis. Buffer containing 10 mM Tris, pH 8.0, 50 mM KCl, 10 mM DTT, and 1% NP-40 followed by centrifugation at 40,000×g for 30 minutes. Glycerol was added to the resulting supernatant to a final concentration of 10%. Lysates were stored at −80° C. [^35S]SRC1.14 was generated using the TNT rabbit reticulocyte system (Promega) in the presence of Pro-Mix (Amersham). Coprecipitation reactions included 25 μl of lysate containing GST-hPXR fusion protein, 25 μl Incubation Buffer (50 mM KCl, 40 mM HEPES pH 7.5, 5 mM β-mercaptoethanol, 1% Tween-20, 1% non-fat dry milk), 5 μl […], and vehicle (1% DMSO) or compounds as indicated. […]

hPXR [4] = target: T2, hPXR; conditions: CV-1 cells; 10 μM
Method: FIGS. 1A-1D. […] Cell extracts were subsequently assayed for CAT activity.
as §2

mPXR1, sequence (O54915 whole entry): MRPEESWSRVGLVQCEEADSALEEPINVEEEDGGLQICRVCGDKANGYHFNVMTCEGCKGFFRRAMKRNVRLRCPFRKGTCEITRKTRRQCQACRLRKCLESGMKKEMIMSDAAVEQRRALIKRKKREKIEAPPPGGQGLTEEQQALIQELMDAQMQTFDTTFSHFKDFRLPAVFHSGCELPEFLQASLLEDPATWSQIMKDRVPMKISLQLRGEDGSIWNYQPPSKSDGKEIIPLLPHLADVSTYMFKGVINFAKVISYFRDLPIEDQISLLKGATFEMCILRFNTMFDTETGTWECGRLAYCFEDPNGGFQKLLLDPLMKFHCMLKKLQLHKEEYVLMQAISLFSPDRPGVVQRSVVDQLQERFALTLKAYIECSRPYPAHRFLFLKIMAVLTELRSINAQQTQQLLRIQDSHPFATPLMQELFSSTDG

For `CC(=O)[C@H]1[C@H](C#N)C[C@H]2[C@@H]3CC=C4C[C@@H](O)CC[C@]4(C)[C@H]3CC[C@@]21C` [PCN], the “fold activation of mPXR1” value (mPXR1) is given as “roughly 9 fold”, the “effect on CYP3A1 / CYP3A levels in rat hepatocytes” value (CYP3A1 levels) is given as “marked effects” and the “interaction of the mPXR1 LBD with SRC1.14” value (GST-mPXR1 [1]) is given as “promote the interaction”. The “activation of hPXR (CAT activity)” value (hPXR [2]) was “activated” and the “induction of CYP3A4 gene expression / CYP3A levels in human hepatocytes” value (CYP3A4 gene expression) was “only modest effects”.

For `CC(=O)[C@H]1CC[C@H]2[C@@H]3CC[C@@H]4CC(=O)CC[C@]4(C)[C@H]3CC[C@]12C` [5 β-pregnane-3,20-dione], the IC50 (Biotin-His6-PXR/RXRα) was 1 µM and the “fold activation of hPXR” value (hPXR [2]; 10 μM) was “roughly 4 fold”.

For `CCC1(c2ccccc2)C(=O)NC(=O)NC1=O` [phenobarbital], the “activation of hPXR (CAT activity)” value (hPXR [2]) was “activated; also recorded: more efficacious activators of hPXR than mPXR1”.

For `Clc1ccccc1C(c1ccccc1)(c1ccccc1)n1ccnc1` [clotrimazole], the “interaction between GST-mPXR1 and [35S]SRC1.14” value (GST-mPXR1 [3]) was “did not” and the IC50 (Biotin-His6-PXR/RXRα) was 1.3 µM.

For `C[C@@H]1C[C@H]2[C@@H]3CCC4=CC(=O)C=C[C@]4(C)[C@@]3(F)[C@@H](O)C[C@]2(C)[C@@]1(O)C(=O)COC(=O)CC(C)(C)C` [dexamethasone-t-butylacetate], the “activation of hPXR (CAT activity), CYP3A1 DR3 PXRE reporter” value (hPXR [4]) was “activated efficiently”, the “activation of hPXR (CAT activity)” value (hPXR [2]) was “induced reporter levels; also recorded: activated” and the “activation of hPXR (CAT activity)” value (hPXR [2]; listed as Dexamethasone-t-butylacetate) was “most efficacious activators”.

For `CC[C@H](C)C(=O)O[C@H]1C[C@@H](C)C=C2C=C[C@H](C)[C@H](CC[C@@H]3C[C@@H](O)CC(=O)O3)[C@H]21` [lovastatin], the “activation of hPXR (CAT activity)” value (hPXR [2]) was “activated; also recorded: more efficacious activators of hPXR than mPXR1”.

For `ClC1=C(Cl)[C@]2(Cl)[C@H]3[C@H]([C@H](Cl)C(Cl)[C@@H]3Cl)[C@@]1(Cl)C2(Cl)Cl` (stereo partly drawn) [transnonachlor], the “activation of hPXR (CAT activity)” value (hPXR [2]) was “activated”.
